B1: rRv2608: 59.6 kDa recombinant M. tuberculosis PPE_MPTR protein Rv2608, expressed in E. coli BL21 as 6×His-tag fusion protein (protein)
chain: MNFAVLPPEVNSARIFAGAGLGPMLAAASAWDGLAEELHAAAGSFASVTTGLAGDAWHGPASLAMTRAASPYVGWLNTAAGQAAQAAGQARLAASAFEATLAATVSPAMVAANRTRLASLVAANLLGQNAPAIAAAEAEYEQIWAQDVAAMFGYHSAASAVATQLAPIQEGLQQQLQNVLAQLASGNLGSGNVGVGNIGNDNIGNANIGFGNRGDANIGIGNIGDRNLGIGNTGNWNIGIGITGNGQIGFGKPANPDVLVVGNGGPGVTALVMGGTDSLLPLPNIPLLEYAARFITPVHPGYTATFLETPSQFFPFTGLNSLTYDVSVAQGVTNLHTAIMAQLAAGNEVVVFGTSQSATIATFEMRYLQSLPAHLRPGLDELSFTLTGNPNRPDGGILTRFGFSIPQLGFTLSGATPADAYPTVDYAFQYDGVNDFPKYPLNVFATANAIAGILFLHSGLIALPPDLASGVVQPVSSPDVLTTYILLPSQDLPLLVPLRAIPLLGNPLADLIQPDLRVLVELGYDRTAHQDVPSPFGLFPDVDWAEVAADLQQGAVQGVNDALSGLGLPPPWQPALPRLF
modifications: left off: small tags and cut ends

Legend:
[1] = test system: serum IgG antibodies (patient sera); experiment: ELISA of serum IgG antibody response of TB patients to rRv2608 protein / synthetic peptides; assay type: binding, human; details: for Reactivity with patient sera: TB patient sera, ELISA; for Mean (O.D. at 492 nm): humoral response, antigen 2 μg/ml
[2] = test system: peripheral blood mononuclear cells (PBMCs); experiment: Lymphocyte (T cell) proliferation assay, MTT readout; assay type: cell-based, human; details: comparison between patient categories / between peptides
[3] = Category I patients (TB diagnosed for the first time, n=22)
[4] = Category II patients (relapsed TB, n=21)
[5] = Category III patients (extrapulmonary TB, n=8)

Row | Molecule | Reactivity with patient sera [1] | Mean (O.D. at 492 nm) [1, 3] | Mean (O.D. at 492 nm) [1, 4] | Mean (O.D. at 492 nm) [1, 5] | T cell proliferative response [2] | T cell proliferative response ([2]; listed as Peptide 2) | T cell proliferative response ([2]; listed as peptide 2) | Serum reactivity of extrapulmonary TB patients ([1]; Category III compared to Category I or II) | Serum reactivity compared with Hsp10 ([1]; all patient categories, p>0.05) | Serum reactivity of healthy controls ([1]; healthy controls (n=10) vs patients, p=0.0002)
1 | LSFTLTGNPNRPK (listed as Mycobacterium tuberculosis) [Peptide P2b, 13-residue overlapping peptide, part of peptide 2] | react equally well with patient sera | 0.450 | 0.498 | 0.422 | – | – | – | – | – | –
2 | NIGFGNRGDANIK (listed as Mycobacterium tuberculosis) [Peptide P1b, 13-residue overlapping peptide, component of peptide 1] | react equally well with patient sera | 0.469 | 0.775 | 0.520 | – | – | – | – | – | –
3 | RPGLDELSFTLTGNPNRPDGGILTK (listed as Mycobacterium tuberculosis) [Peptide P2] | strongly react with patient sera | 0.480 | 0.706 | 0.441 | comparatively higher T cell response | higher response in fresh infection cases | fresh infection cases>relapsed TB>extrapulmonary TB cases | – | – | –
4 | RGDANIGIGNIGK (listed as Mycobacterium tuberculosis) [Peptide P1c, 13-residue overlapping peptide, component of peptide 1] | react equally well with patient sera | 0.416 | 0.810 | 0.380 | – | – | – | – | – | –
5 | RPGLDELSFTLTK (listed as Mycobacterium tuberculosis) [Peptide P2a, 13-residue overlapping peptide, part of peptide 2] | react equally well with patient sera | 0.473 | 0.689 | 0.392 | – | – | – | – | – | –
6 | DRNLGIGNTGNWK (listed as Mycobacterium tuberculosis) [Peptide P1e, 13-residue overlapping peptide, component of peptide 1] | react equally well with patient sera | 0.407 | 0.711 | 0.405 | – | – | – | – | – | –
7 | DNIGNANIGFGNK (listed as Mycobacterium tuberculosis) [Peptide P1a, 13-residue overlapping peptide, component of peptide 1] | react equally well with patient sera | 0.426 | 0.770 | 0.473 | – | – | – | – | – | –
8 | DNIGNANIGFGNRGDANIGIGNIGDRNLGIGNTGNWK (listed as Mycobacterium tuberculosis) [Peptide P1] | strongly react with patient sera | 0.412 | 0.675 | 0.483 | – | – | – | – | – | –
9 | GNPNRPDGGILTK (listed as Mycobacterium tuberculosis) [Peptide P2c, 13-residue overlapping peptide, part of peptide 2] | react equally well with patient sera | 0.491 | 0.632 | 0.410 | comparatively higher T cell response | – | – | – | – | –
10 | GIGNIGDRNLGIK (listed as Mycobacterium tuberculosis) [Peptide P1d, 13-residue overlapping peptide, component of peptide 1] | react equally well with patient sera | 0.482 | 0.787 | 0.527 | – | – | – | – | – | –
11 | B1 | – | – | – | – | – | – | – | less reactivity | equal to or higher than the response to Hsp10 | significantly less when compared to that of patients

— patent US8080251B2, “Antigenic peptides” (Centre for DNA Fingerprinting and Diagnostics, priority 2004, dated 2011)
